Results: ChEMBL document CHEMBL1153154, “A single step purification for autolytic zinc proteinases” (Bioorg Med Chem Lett, 2010)

Columns and labels:
Stromelysin-1 [1] = target: T1, Stromelysin-1 (Homo sapiens, UniProt P08254); assay: Binding affinity to stromelysin-1 catalytic domain expressed in Escherichia coli BL21 (DE3) by isothermal titration […]
Stromelysin-1 [2] = target: T1, Stromelysin-1; assay: Binding affinity to stromelysin-1 catalytic domain

T1 sequence (P08254 whole entry, the tested form may be a part): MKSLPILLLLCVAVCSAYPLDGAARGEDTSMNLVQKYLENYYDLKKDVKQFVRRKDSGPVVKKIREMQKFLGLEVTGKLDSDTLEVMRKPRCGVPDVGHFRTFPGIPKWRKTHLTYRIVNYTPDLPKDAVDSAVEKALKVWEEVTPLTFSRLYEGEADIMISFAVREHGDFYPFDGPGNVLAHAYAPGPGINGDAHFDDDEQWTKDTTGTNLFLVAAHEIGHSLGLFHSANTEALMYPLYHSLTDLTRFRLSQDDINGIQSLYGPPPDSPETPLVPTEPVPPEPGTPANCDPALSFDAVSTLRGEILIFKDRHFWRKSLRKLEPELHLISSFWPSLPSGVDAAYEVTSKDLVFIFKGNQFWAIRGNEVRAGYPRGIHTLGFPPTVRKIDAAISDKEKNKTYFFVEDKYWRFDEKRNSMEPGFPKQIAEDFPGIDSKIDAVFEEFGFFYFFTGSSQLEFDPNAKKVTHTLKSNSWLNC

Kd (Stromelysin-1 [1]) [nM]	Kd (Stromelysin-1 [2]) [nM]	SMILES
110	100	N#Cc1ccc(-c2ccc(OCCC(=O)NO)cc2)cc1
17000	11000	N#Cc1ccc(-c2ccc(OCCCCC(=O)NO)cc2)cc1
43	113	COc1ccc(S(=O)(=O)N[C@@H](C(=O)NO)C(C)C)cc1
